We go through 81 compounds from PMC12040169 (PLOS Biology, 2025).

SMILES strings stand for the structures.

The nature of one data set: in vitro. As to conditions: human, hela cells, % viability.
Turning to `Cc1ncncc1C(=O)N1CCCCC1CCc1ccccc1` (stereo not drawn) [CBK282264], the viability at 28.5 h, 10 µM stood at 109%.

Take `CC(C)(C)OC(=O)N1CCN(S(=O)(=O)c2ccc(Br)cc2)CC1` [CBK143623]: the viability at 28.5 h, 10 µM was determined as 91.8%.

For `COc1ccc(-c2cc(CC3(NC(C)=O)COC3)no2)cc1` [CBK289428], the viability at 28.5 h, 10 µM was found to be 94.5%.

With `FC(F)(F)c1cccc(-n2cc(-c3cccnc3)nn2)c1` [CBK113053], the viability at 28.5 h, 10 µM came to 86%.

On to `CN(C(=O)CCc1nc2sc3c(c2c(=O)[nH]1)CCCC3)C1CCCCC1` [CBK306075], for which the viability at 28.5 h, 10 µM worked out at 88.2%.

As for `Fc1cc(Cl)ccc1NC(=S)NCCN1CCOCC1` [CBK268441], the viability at 28.5 h, 10 µM was 98.4%.

For `O=C(Nc1ccc(OC(F)F)cc1)Nc1c(Br)cnc2cccnc12` [CBK107632], the viability at 28.5 h, 10 µM is 87.8%.

`COc1cccc(C2CCCN2C(=O)CC2CCN(C(=O)CC3CCCCC3)CC2)c1` (stereo not drawn) [CBK286264]: the viability at 28.5 h, 10 µM worked out at 98.4%.

As to `COCc1nnc(Sc2nccc(C(F)(F)F)n2)s1` [CBK093790], the viability at 28.5 h, 10 µM was 99.5%.

As to `CSCCCNC(=O)C1(c2ccccc2)CCCC1` [CBK149526], the viability at 28.5 h, 10 µM came out at 109%.

With `CC(C)C(NC(=O)c1cc2c([nH]c1=O)CCC2)c1ccc(F)cc1` (stereo not drawn) [CBK281662], the viability at 28.5 h, 10 µM was found to be 93.4%.

With `CC(=O)Nc1ccc(CNC(=O)c2cccnc2O)cc1` [CBK304559], the viability at 28.5 h, 10 µM amounted to 107%.

As to `CSCCN1CCC(Oc2nccnc2OCc2cc(C)on2)CC1` [CBK082966T], the viability at 28.5 h, 10 µM was 89.7%.

`CN(C)c1cccc(-c2cncc(NCc3ccco3)n2)c1` [CBK065555]: the viability at 28.5 h, 10 µM turned out to be 106%.

As for `CCNC(=O)N1C[C@@H]2OCC(=O)N(Cc3cccnc3)[C@@H]2C1` [CBK289682], the viability at 28.5 h, 10 µM was determined as 109%.

For `Cn1cncc1C(=O)NCc1ccccc1` [CBK200199], the viability at 28.5 h, 10 µM turned out to be 96.9%.

Consider `Nc1nc(OCCc2cccs2)cnc1-c1ccc(OC(F)(F)F)cc1` [CBK145116], for which the viability at 28.5 h, 10 µM amounted to 92.7%.

Regarding `Cc1cc(Br)ccc1NC(=O)c1cnc2sccn2c1=O` [CBK246520], the viability at 28.5 h, 10 µM was 112%.

Turning to `Cc1ccccc1-c1nc2ccc(NC(=O)CCC(=O)O)cc2o1` [CBK269904], the viability at 28.5 h, 10 µM was 93.4%.

With `Cc1cc2ncn(CC(=O)N3CCC(F)CC3)c2cc1C` [CBK200266], the viability at 28.5 h, 10 µM worked out at 104%.

For `OCc1ccccc1-c1cncc(NCCc2c[nH]c3ccccc23)n1` [CBK037852], the viability at 28.5 h, 10 µM turned out to be 93.2%.

For `O=C(NC1CCCC1)c1ccc(Cl)cc1Cl` [CBK002108], the viability at 28.5 h, 10 µM stood at 93.7%.

Take `O=C(O)c1cccc(NC(=O)c2cc(-n3cnnc3)ccc2Cl)c1` [CBK268026]: the viability at 28.5 h, 10 µM is 83%.

In the case of `CC1CCN(Cc2ccc(-c3nnn(CC(=O)NCc4ccc(NS(C)(=O)=O)cc4)n3)cc2)CC1` [CBK144588C], the viability at 28.5 h, 10 µM is 90.3%.

As for `COc1cc(/C=N/NC(=O)CCn2c3ccccc3c3ccccc32)ccc1O` [CBK262332], the viability at 28.5 h, 10 µM worked out at 73%.

As to `C=CCN1C(=O)C2(CC(=O)N(CC(=O)N(C)C)C2=O)c2cc(OC)ccc21` (stereo not drawn) [CBK075227], the viability at 28.5 h, 10 µM turned out to be 92.3%.

Take `CC(C)C(=O)Nc1cc2cccnc2nc1-c1cccc(C(F)(F)F)c1` [CBK073657]: the viability at 28.5 h, 10 µM amounted to 93.7%.

In the case of `Cc1ccccc1-c1ccccc1CC1(C(=O)N(C)C)CCN(C(=O)CC(C)(C)C)CC1` [CBK285715], the viability at 28.5 h, 10 µM turned out to be 95.1%.

With `COCC(C)NC(=O)c1cnn2c(C(F)(F)F)cc(-c3cccs3)nc12` (stereo not drawn) [CBK307417], the viability at 28.5 h, 10 µM amounted to 104%.

On to `COc1ccc(S(=O)(=O)N2CCC(C(=O)O)CC2)cc1Cl` [CBK267162], for which the viability at 28.5 h, 10 µM was 94.9%.

Consider `COc1cccc(C(=O)Nc2nnc(-c3ccco3)o2)c1` [CBK287421], for which the viability at 28.5 h, 10 µM is 106%.

On to `CN(C)Cc1nc(C(=O)N2CCn3nc(C(O)C4CC4)cc3C2)cs1` (stereo not drawn) [CBK307489], for which the viability at 28.5 h, 10 µM came to 101%.

Turning to `COc1cccc(NC(=O)CSc2ccc(Cl)cc2)c1` [CBK263811], the viability at 28.5 h, 10 µM is 85.6%.

Regarding `Cn1c(=O)c2c(ncn2CC(=O)Nc2cccc(Br)c2)n(C)c1=O` [CBK133287], the viability at 28.5 h, 10 µM is 90.7%.

Consider `O=C(Cc1c[nH]c2ccccc12)N1CCC(F)CC1` [CBK200274], for which the viability at 28.5 h, 10 µM was 118%.

Turning to `CC1(C)[N+]([O-])=CC(c2ccc(-c3ccccc3)cc2)=[N+]([O-])C1(C)C` [CBK267825], the viability at 28.5 h, 10 µM amounted to 98.7%.

As to `O=C(NC(c1ccccc1)c1ccccc1)N1CCN(c2ccccc2)CC1` [CBK155177], the viability at 28.5 h, 10 µM was 90.7%.

On to `COc1ccccc1C1(O)CCN(CC(O)c2ccc3c(c2)OCCO3)CC1` (stereo not drawn) [CBK286482], for which the viability at 28.5 h, 10 µM was 90.1%.

In the case of `Cc1cc(NC(=O)c2cccc(C#N)c2)c2ccccc2n1` [CBK116267], the viability at 28.5 h, 10 µM stood at 101%.

For the compound `COc1cccc(N2CCC(=O)N2)c1` [CBK087441], the viability at 28.5 h, 10 µM was 87%.

As for `O=S(=O)(NCc1ccccn1)c1ccc(Cl)c(Cl)c1Cl` [CBK263978], the viability at 28.5 h, 10 µM was determined as 95.6%.

Turning to `Cc1cc(C(F)(F)F)nn1CCNC(=O)c1cn2ccsc2n1` [CBK307260], the viability at 28.5 h, 10 µM is 112%.

In the case of `Cc1cc(C(=O)N2CCCC(c3ccc(Cc4ccc(Cl)cc4)cn3)C2)nc(N(C)C)n1` (stereo not drawn) [CBK286036], the viability at 28.5 h, 10 µM was 116%.

Turning to `CCN(CC)CCN1CCN(c2cncc(-c3cccs3)n2)CC1` [CBK065703], the viability at 28.5 h, 10 µM turned out to be 95.5%.

Regarding `CS(=O)(=O)N(CC(=O)NCc1ccccn1)c1cc(Cl)cc(Cl)c1` [CBK266459], the viability at 28.5 h, 10 µM was 106%.

For the compound `COc1ccc(-c2nnc(SCc3cc(=O)oc4cc(C)ccc34)n2CC(C)C)cc1` [CBK297518], the viability at 28.5 h, 10 µM is 81.3%.

As for `Brc1ccc2nc3c(nc2c1)Nc1nonc1N3` [CBK262414], the viability at 28.5 h, 10 µM amounted to 78.5%.

In the case of `Cc1ccccc1C(NC(=O)C1CCN(C(=O)N(C)c2ccccc2)CC1)c1ccccn1` (stereo not drawn) [CBK059721], the viability at 28.5 h, 10 µM is 88.7%.

On to `COc1ccc(OC)c(NC(=O)CSc2ccc(-c3ccncc3)nn2)c1` [CBK287637], for which the viability at 28.5 h, 10 µM was 86.6%.

In the case of `CCOC(=O)Cn1nc(C)c(Cc2c(Cl)cccc2Cl)c1CC` [CBK113223], the viability at 28.5 h, 10 µM came out at 85%.

Take `Nc1nnc(SCCC(=O)N2CCN(c3ccc(F)cc3)CC2)s1` [CBK304597]: the viability at 28.5 h, 10 µM amounted to 84.7%.

For the compound `COC(=O)c1ccc(NS(=O)(=O)c2ccc(C)c(C(=O)O)c2)c(C)c1` [CBK296684], the viability at 28.5 h, 10 µM came to 105%.

Turning to `COc1ccccc1C(CC(=O)O)c1ccc2c(c1)OCO2` (stereo not drawn) [CBK286971], the viability at 28.5 h, 10 µM was 91.2%.

On to `O=C1CC(=O)N(Cc2ccccc2)C(=O)N1` [CBK224014], for which the viability at 28.5 h, 10 µM was found to be 91.7%.

Regarding `COc1ccc(CCCNC(=N)N)cc1Cl` [CBK261404G], the viability at 28.5 h, 10 µM amounted to 93.4%.

`Cc1ccc(S(=O)(=O)NC(Cc2ccccc2)C(=O)O)cc1` (stereo not drawn) [CBK217645]: the viability at 28.5 h, 10 µM was found to be 102%.

On to `CN1CCC2(CC1)CC(NC(=O)C1CCCCC1)c1ccccc1O2` (stereo not drawn) [CBK282635], for which the viability at 28.5 h, 10 µM is 91.6%.

For the compound `CN(C)Cc1cc(-c2ccccc2F)nn1CCNC(=O)C1CC1` [CBK282006], the viability at 28.5 h, 10 µM came out at 90.5%.

As for `CC(=O)N1CC[C@H]2NC(=O)CNC(=O)C3(CCCC[C@H]2C1)CCN(C(=O)/C=C/c1ccccc1)CC3` [CBK292092], the viability at 28.5 h, 10 µM was found to be 105%.

As for `CC(C)Cn1ncc2cc(C(=O)Nc3cccnc3N(C)C)cnc21` [CBK304891], the viability at 28.5 h, 10 µM worked out at 87.1%.

For the compound `Cc1ccc(S(=O)(=O)Nc2ccc(C(=O)O)cc2)cc1` [CBK034060], the viability at 28.5 h, 10 µM is 85.3%.

Regarding `CSc1nnc(N(C)S(=O)(=O)c2ccc(C)cc2)s1` [CBK155272], the viability at 28.5 h, 10 µM came out at 87.2%.

On to `Cc1nnc(C(C)N2CCN(Cc3noc(C(C)(C)C)n3)CC2)o1` (stereo not drawn) [CBK305171], for which the viability at 28.5 h, 10 µM was determined as 85.7%.

In the case of `Cc1cc(C)nc(N2CCN(CCC(=O)O)CC2)n1` [CBK287272], the viability at 28.5 h, 10 µM was found to be 97%.

On to `CCOC(=O)c1cnc2ccc(F)cc2c1NCCN(C)C` [CBK265751], for which the viability at 28.5 h, 10 µM came out at 91.7%.

In the case of `COc1ccc(Oc2nccnc2N2CCN(Cc3ccc(C(F)(F)F)cc3)CC2)cc1OC` [CBK083044T], the viability at 28.5 h, 10 µM stood at 102%.

Consider `CN1CCN(N/C=C2/C(=O)N(c3ccc([N+](=O)[O-])cc3)N=C2c2ccccc2)CC1` [CBK262763], for which the viability at 28.5 h, 10 µM amounted to 89.6%.

With `O=C(NC(c1ccccc1)c1ccco1)C1CCN(C(=S)NCCc2ccccc2)CC1` (stereo not drawn) [CBK060412], the viability at 28.5 h, 10 µM stood at 94.4%.

With `O=C(COc1cccnc1)N1CCCC2(CCN(C(=O)Cc3c[nH]c4ccccc34)C2)C1` (stereo not drawn) [CBK131608], the viability at 28.5 h, 10 µM is 105%.

Consider `CC(C)[C@@H](CO)Nc1cc(Cl)nc2ccnn12` [CBK037242], for which the viability at 28.5 h, 10 µM is 96.2%.

Take `Cc1csc2c(N3CCCC3CC(O)c3cnn(C)c3)ncnc12` (stereo not drawn) [CBK304477]: the viability at 28.5 h, 10 µM stood at 91.9%.

`Cc1ccc(CNC(=O)CN(c2cccc(C(F)(F)F)c2)S(=O)(=O)c2ccc(C)cc2)cc1` [CBK263997]: the viability at 28.5 h, 10 µM was found to be 89.3%.

As for `Cc1nc(-c2cccnc2)[nH]c(=O)c1CC(=O)N(C)C1CCCCC1` [CBK306310], the viability at 28.5 h, 10 µM stood at 88.7%.

Consider `Cc1nnc(SCCCCSc2nnc(C)n2N)n1N` [CBK265686], for which the viability at 28.5 h, 10 µM was determined as 88.5%.

For the compound `COc1cccc(NC(=S)NCCc2ccccn2)c1` [CBK265245], the viability at 28.5 h, 10 µM stood at 96.9%.

For `O=C(Oc1ccc(-c2cnc3ccccc3n2)cc1)c1ccc(S(=O)(=O)N2CCCCC2)cc1` [CBK267812], the viability at 28.5 h, 10 µM is 93.7%.

For the compound `COc1cccc2cc(C(=O)Nc3ccc4[nH]ccc4c3)oc12` [CBK149819], the viability at 28.5 h, 10 µM is 91.5%.

For the compound `CC(CC(=O)O)CC(=O)NC1CCN(Cc2ccccc2)CC1` (stereo not drawn) [CBK287042], the viability at 28.5 h, 10 µM was determined as 91.4%.

For `O=C(CSc1nc2ccccc2c(=O)n1Cc1ccccc1)c1ccc(Br)cc1` [CBK262700], the viability at 28.5 h, 10 µM is 93.4%.

`CCOc1ccc2nc(NC(=O)CC)sc2c1` [CBK287295]: the viability at 28.5 h, 10 µM came to 107%.

Still in this data set, the particulars now being: human, hela cells, % viability, bulk resorufin, single well.
For `CC(C)NC(=O)Cn1cc(C(=O)COc2ccccc2)c2ccccc21` [CBK268317], the viability at 28.5 h, 10 µM worked out at 82.6%.

In general, viability refers to a read-out of living cells in per cent, often relative to untreated cells.
